Measured values: US20020176820A1, “Functional expression of, and assay for, functional cellular receptors in vivo” (The Trustees of Columbia University, priority 1997, published 2002)
Entries after “also recorded” stand apart in the source; their conditions may differ.

Assays:
Format in all cases: cell-based
rat I7 odorant receptor [1] = molecular target: T1, rat I7 odorant receptor (Rattus norvegicus, UniProt P23270); experiment: Electro-olfactogram (EOG) recording from AdexCAG-I7-IRES-GFP infected rat olfactory epithelium; details: for change of EOG odorant response in I7 virus infected vs uninfected animals: responses normalized to amyl acetate, panel of 74 odorants
T1 construct: expressed in transfected cells; host or cells: rat (Sprague-Dawley) olfactory sensory neurons infected in vivo with recombinant adenovirus AdexCAG-I7-IRES-GFP
T1 sequence (P23270 1-327): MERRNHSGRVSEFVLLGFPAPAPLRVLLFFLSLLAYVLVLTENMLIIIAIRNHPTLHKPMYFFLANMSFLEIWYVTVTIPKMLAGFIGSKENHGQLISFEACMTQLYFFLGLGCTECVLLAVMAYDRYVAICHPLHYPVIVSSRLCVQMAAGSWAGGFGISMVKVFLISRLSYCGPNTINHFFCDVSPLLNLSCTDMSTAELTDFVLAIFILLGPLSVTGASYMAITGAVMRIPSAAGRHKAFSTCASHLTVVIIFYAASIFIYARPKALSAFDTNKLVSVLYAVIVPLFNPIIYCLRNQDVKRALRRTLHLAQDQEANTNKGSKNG
Description: Rats (Sprague-Dawley) of various ages and both sexes were used for these experiments. Under anesthesia (ketamine, 90 mg/kg and xylazine, 10 mg/kg, i.p.), 30 μl of rat Ringer solution (in mM, 135, NaCl; 5, I(Cl; 1, CaCl2; 4, MgCl2; 10, HEPES; pH 7.4) containing the AdexCAG-I7-IRES-GFP at a titer of 3×10^9 pfu/ml, and 0.3% fast green dye was slowly injected through the nostril into the right side of the nasal cavity with a short length of thin plastic tubing. The solution was allowed to remain in the nasal cavity. After recovery, the animals were maintained at room temperature with no other treatment until sacrificed.
(§1) The animal was overdosed with anesthetics (Ketamine and xylazine) and decapitated. The head was cut open sagittally and the septum was removed to expose the medial surface of the olfactory turbinates (44 this reference is hereby incorporated by reference in its entirety). The right half of the head was mounted in a wax dish filled with rat Ringer. The medial surface of turbinates was face up and exposed to the air. A continuous stream of humidified clean air was gently blown on the turbinates through tubing to prevent tissue from drying. The opening of the tubing was 8 mm in diameter and placed approximately 10 mm from the turbinate surface.
Odorant solutions were prepared by diluting a 0.5 M stock in DMSO with water. All odorant chemicals were purchased from Aldrich, except Lyral and Lilial which were the kind gift of IFF and Harmon & Reimer Inc. Three milliliters of the odorant solution were placed in a 10 ml glass test tube and capped with a silicon stopper. The concentration of volatile odorant in the 7 cc airspace was allowed to equilibrate for more than 1 hour. All solutions were used within 8 hours. Two 18 gauge needles provided the input and output ports for the odorant containing vapor above the solution. For stimulation a 100 ms pulse of the odorant vapor at 9 psi was injected into the continuous stream of humidified air. The pulse was controlled by a Picospritzer solenoid controlled valve (General Valve). Amyl acetate was used as the reference odorant to control for the variability in responses between animals and during long recording sessions, and was delivered on every sixth trial of odorant stimulation. Three tubes of amyl acetate at 10^−3 M liquid concentration were used alternately in each experiment. The odorant stimulus pathway was cleaned by air between each stimulus presentation. The minimum interval between two adjacent stimuli was 1 minute.
The EOG recording electrode was an Ag/AgCl wire in a capillary glass pipette filled with rat Ringer solution containing 0.6% agarose. The electrode resistance was between 0.5 and 1 MΩ. The recording pipette was placed on the surface of the olfactory epithelium and connected to a differential amplifier (DP-301, Warner Instrument). Placement of the electrode was determined by visualizing GFP fluorescence with a modified stereomicroscope (Kramer Scientific). The EOG potential was observed on a chart recorder, recorded with a DAT tape recorder, and later transferred to computer. For most experiments two electrodes and two amplifiers were used to record EOGs from two different sites of epithelium simultaneously. All experiments were performed at room temperature (22-25° C.).
Odorants were prepared and applied in the following manner. Three milliliters of each odorant solution at a particular concentration were placed in a 10 ml test tube stoppered with a silicone cap, and left for one hour to allow the concentration of volatile odorant in the 7 cc airspace above the solution to equilibrate. Most of the odorants were prepared at a liquid concentration of 10^−2 M to 10^−3 M depending on their relative volatilities. Concentrations of stimulus produced at the olfactory epithelium could not be known, but the system reliably delivered the same amount of stimulus on each trial as there was little variability between responses to successive pulses of the same odorant. […]

rat I7 odorant receptor [2] = molecular target: T1, rat I7 odorant receptor; experiment: Whole-cell patch clamp recording from isolated GFP positive olfactory neurons infected by AdexCAG-I7-IRES-GFP
Description: Whole-cell patch clamp recording was performed on isolated cells with detectable fluorescence (FITC filter). Cell dissociation techniques for olfactory epithelium are described in detail elsewhere (45 this reference is hereby incorporated by reference in its entirety); for these experiments we included only papain treatment and mechanical disruption. Recordings were made with the Axopatch 1D amplifier. […] Data were acquired with the PULSE software (HEKA). Odorants were applied by a constant stream perfusion device (SF77, Warner Instruments) or by pressure pulse. The extracellular solution was the rat Ringer described above. All cells were tested to confirm that they had the normal voltage gated currents before investigating their odorant responses.
The holding potential was −60 mV. The currents varied from 60-250 pA in response to a 50 msec pulse of octanal at approximately 10−4 M, values that are within the range previously reported for rat olfactory neurons (28). […] The odorant induced current reversed around 0 mV.

rat olfactory epithelium = experiment: EOG recording from control rat olfactory epithelium (uninfected or infected with GFP-only adenovirus)
Text: as §1
Odorant solutions were prepared by diluting a 0.5 M stock in DMSO with water. All odorant chemicals were purchased from Aldrich, except Lyral and Lilial which were the kind gift of IFF and Harmon & Reimer Inc. Three milliliters of the odorant solution were placed in a 10 ml glass test tube and capped with a silicon stopper. […]
The EOG recording electrode was an Ag/AgCl wire in a capillary glass pipette filled with rat Ringer solution containing 0.6% agarose. […] Placement of the electrode was determined by visualizing GFP fluorescence with a modified stereomicroscope (Kramer Scientific). The EOG potential was observed on a chart recorder, recorded with a DAT tape recorder, and later transferred to computer. […]

`CCCCCCCCC=O` [nonyl aldehyde] was tested, and the “change of EOG odorant response in I7 virus infected vs uninfected animals” value (“change of EOG odorant response” below) (rat I7 odorant receptor [1]) was “increased odorant response”.
With `CCCCCCC=O` [heptaldehyde] the “change of EOG odorant response” value (rat I7 odorant receptor [1]) was “increased odorant response”.
With `CCCCCCCC=O` [octyl aldehyde] the “reversal potential of odorant induced current” value (rat I7 odorant receptor [2]) was “around 0 mV”, the “latency of odorant induced current” value (rat I7 odorant receptor [2]; 50 msec pulse at approximately 10−4 M) was 100 to 250 ms and the odorant induced current (rat I7 odorant receptor [2]; 50 msec pulse at approximately 10−4 M, holding potential −60 mV) was 60-250 pA. For the same molecule, the “cells with odorant induced current” value (rat I7 odorant receptor [2]; isolated GFP positive neurons) was 5 of 5, the “EOG response in animals infected with adenovirus containing only the GFP gene” value (rat olfactory epithelium; GFP-only adenovirus, same CAG promoter, compared with uninfected animals) was “not different from uninfected animals” and the “response ratio of octyl aldehyde to amyl acetate” value (rat olfactory epithelium; normal (uninfected) animals, 5×10^−5 M in solution) was 1. The “difference in response magnitude (octyl aldehyde compared to amyl acetate) in infected versus control epithelia” value (rat I7 odorant receptor [1]; dose-response at various concentrations, FIG. 5c) was no more than 7 fold, the “relative EOG amplitude after moving electrode from high fluorescence to regions with little or no GFP expression” value (rat I7 odorant receptor [1]; infected animals) was “significantly reduced” and the “response ratio of octyl aldehyde to amyl acetate” value (rat I7 odorant receptor [1]; infected animals, odorant concentration in solution 5×10^−5 M) was 7 times. The “EOG response in animals with lower infection rates” value (rat I7 odorant receptor [1]; infection judged by extent of GFP fluorescence) was “comparably smaller”, the “average EOG response in infected vs. uninfected animals” value (rat I7 odorant receptor [1]; normalized to amyl acetate, comparatively high odorant concentrations near saturation) was 1.7 times and the “change of EOG odorant response” value (rat I7 odorant receptor [1]) was “dramatically greater; also recorded: increased odorant response”.
In the case of `CCCCC/C=C/C=O` [trans-2-octenal], the “change of EOG odorant response” value (rat I7 odorant receptor [1]) is reported as “failed to elicit responses larger than in normal animals”.
`CCCCCCCCCCC=O` [undecylic aldehyde] was tested, and the “change of EOG odorant response” value (rat I7 odorant receptor [1]) was “not”.
In the case of `CCCCCCCCCC=O` [decyl aldehyde], the “change of EOG odorant response” value (rat I7 odorant receptor [1]) is reported as “increased odorant response”.
With `CCCCCC=O` [hexaldehyde] the “change of EOG odorant response” value (rat I7 odorant receptor [1]) was “not”.
